The nature of series [1]: Absorption spectrum of PS1 and common photosensitizers in DMSO. The class given is physicochemical. As for the experimental part:
(§1) The absorption maximum of all of the substances was measured in DMSO.
The absorption spectrum of the synthesized PS1 was measured. […] In addition, absorption spectra were measured at different concentrations, and the absorption at a wavelength of 775 nm was then plotted to obtain a molar adsorption coefficient. As a result, the molar adsorption coefficient was 41000 (M^−1 cm^−1) (FIG. 2).

Series [2] can be described thus: Singlet oxygen quantum yield (DPBF, light irradiation). The class given is physicochemical. Here is the method: as §1
The singlet oxygen quantum yield of PS1 was measured. […] This value was higher than the values of conventional photosensitizers, and thus, the usefulness of PS1 for photo dynamic therapy could be expected.

Series [3] relates to EGFR-overexpressing A431 cells. The series is described as follows: Immunotoxin plus photochemical internalization (PCI), cell viability (CCK-8). The note with it: A431, immunotoxin + PCI with the named photosensitizer + NIR. In kind it is cell-based.
Procedure: After that, a new medium was added, and irradiation (6.1 mW/cm^2 for 60 min, 22 J/cm^2) with a near infrared light (700 to 1100 nm) was then carried out. Forty-eight hours after the irradiation, CCK-8 was added to the resultant, and the absorption at a wavelength of 450 nm was then measured using a plate reader, so that cell viability was measured (FIG. 8).
Using these photosensitizers, a cell experiment involving the combined use of addition of the immunotoxin and PCI was carried out.
The conditions of series [4]: protoporphyrin IX generated as a result of metabolizing 5-ALA in the cytoplasm; cited from earlier work.

`[Zn+2].c1ccc2c(c1)-c1nc-2nc2[n-]c(nc3nc([n-]c4nc(n1)-c1ccccc1-4)-c1ccccc1-3)c1ccccc21` [Zinc phthalocyanine]: the “absorption maximum (region)” value in series [1] is recorded as “in a visible light region”. The “singlet oxygen quantum yield” value in series [2] (in DMSO) is reported as “high”. In series [3], the “photosensitization ability under near infrared light irradiation (reason given for no viability reduction)” value was “photosensitization could not be performed”.

Consider `CC1(C)C(/C=C/C=C/C=C/C=C2\N(CCCCS(=O)(=O)O)c3ccc4ccccc4c3C2(C)C)=[N+](CCCCS(=O)(=O)[O-])c2ccc3ccccc3c21` [Indocyanine green], for which the “absorption maximum (region)” value in series [1] is reported as “in a near infrared region”. In series [2] (in a buffer aqueous solution (pH 7.4)), the “singlet oxygen quantum yield” value came to 0.12. The “photosensitization ability under near infrared light irradiation (reason given for no viability reduction)” value in series [3] is listed as “could not release a sufficient amount of singlet oxygen”.

With `NCC(=O)CCC(=O)O` [5-ALA, 5-aminolevulinic acid], in series [4], the “absorption maximum (λab)” value is reported as 405 nm.
